A value given as a limit tells only on which side of the number the result lay.

One assay has as its target T1, HMG-CoA reductase (Homo sapiens, UniProt P04035).
T1 construct: endogenous in cells; host or cells: HepG2 (Korea Cell Line Bank)
T1 sequence (P04035 1-888): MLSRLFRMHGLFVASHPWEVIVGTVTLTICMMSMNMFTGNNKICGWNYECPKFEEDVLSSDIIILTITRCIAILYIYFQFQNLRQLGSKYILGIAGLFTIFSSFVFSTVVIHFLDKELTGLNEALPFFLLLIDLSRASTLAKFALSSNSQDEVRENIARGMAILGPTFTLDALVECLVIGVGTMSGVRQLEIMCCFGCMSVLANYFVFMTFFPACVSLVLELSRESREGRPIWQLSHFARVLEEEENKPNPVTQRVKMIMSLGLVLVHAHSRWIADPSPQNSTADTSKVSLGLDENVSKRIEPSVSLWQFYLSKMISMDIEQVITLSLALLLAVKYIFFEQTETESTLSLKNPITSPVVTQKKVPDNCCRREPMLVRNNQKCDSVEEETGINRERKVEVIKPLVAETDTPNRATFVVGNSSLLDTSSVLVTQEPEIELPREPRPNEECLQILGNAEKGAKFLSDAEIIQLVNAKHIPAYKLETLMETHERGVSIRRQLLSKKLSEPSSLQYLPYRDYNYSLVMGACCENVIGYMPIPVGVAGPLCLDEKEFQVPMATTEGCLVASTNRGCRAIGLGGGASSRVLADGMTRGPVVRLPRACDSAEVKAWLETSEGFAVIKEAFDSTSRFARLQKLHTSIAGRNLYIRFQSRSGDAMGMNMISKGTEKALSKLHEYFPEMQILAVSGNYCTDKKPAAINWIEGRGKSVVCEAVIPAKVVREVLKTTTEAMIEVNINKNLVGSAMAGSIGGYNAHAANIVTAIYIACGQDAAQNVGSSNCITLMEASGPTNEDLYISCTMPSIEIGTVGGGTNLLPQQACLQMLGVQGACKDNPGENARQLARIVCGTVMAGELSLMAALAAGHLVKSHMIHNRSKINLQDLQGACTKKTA
The experiment in a line: HMG-CoA reductase (HMGCR) degradation in HepG2 cells by western blotting. The format is cell-based. The following applies: treated for 18 hours, ratio of HMG-CoA reductase to GAPDH. The method, boiled down:
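HepG2 cells (passage P105–P110) treated 18 hours with compounds in 10-point three-fold dilutions from 3 μM. RIPA lysates (15 μg protein, BCA-quantified) run on SDS-PAGE and immunoblotted for HMGCR (1:500) with GAPDH (1:20000) as loading control, primary antibodies 16 hours at 4° C.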
(A western blot detects proteins with antibodies after separation by electrophoresis.)
Take `Cc1ncsc1-c1ccc(CNC(=O)[C@@H]2C[C@@H](O)CN2C(=O)[C@@H](NC(=O)C2(F)CC2)C(C)(C)C)c(OCCOCCOCCNC(=O)O[C@H]2C[C@@H](C)C=C3C=C[C@H](C)[C@H](CC[C@@H]4C[C@@H](O[Si](C)(C)C(C)(C)C)CC(=O)O4)[C@H]32)c1` [Compound 28, (1S,3R,7S,8S,8aR)-8-(2-((2R,4R)-4-((tert-butyldimethylsilyl)oxy)-6-oxotetrahydro-2H-pyran-2-yl)ethyl)-3,7-dimethyl-1,2,3,7,8,8a-hexahydronaphthalen-1-yl (2-(2-(2-(2-(((2S,4R)-1-((S)-2-(1-fluorocyclopropane-1-carboxamido)-3,3-dimethylbutanoyl)-4-hydroxypyrrolidine-2-carboxamido)methyl)-5-(4-methylthiazol-5-yl)phenoxy)ethoxy)ethoxy)ethyl)carbamate]: the DC50 was < 50 nM.

Turning to `Cc1ncsc1-c1ccc(CNC(=O)[C@@H]2C[C@@H](O)CN2C(=O)[C@@H](NC(=O)C2(F)CC2)C(C)(C)C)c(OCCOCCOCCOCCNC(=O)O[C@H]2C[C@@H](C)C=C3C=C[C@H](C)[C@H](CC[C@@H]4C[C@@H](O[Si](C)(C)C(C)(C)C)CC(=O)O4)[C@H]32)c1` [Compound 29, (1S,3R,7S,8S,8aR)-8-(2-((2R,4R)-4-((tert-butyldimethylsilyl)oxy)-6-oxotetrahydro-2H-pyran-2-yl)ethyl)-3,7-dimethyl-1,2,3,7,8,8a-hexahydronaphthalen-1-yl (2-(2-(2-(2-(2-(((2S,4R)-1-((S)-2-(1-fluorocyclopropane-1-carboxamido)-3,3-dimethylbutanoyl)-4-hydroxypyrrolidine-2-carboxamido)methyl)-5-(4-methylthiazol-5-yl)phenoxy)ethoxy)ethoxy)ethoxy)ethyl)carbamate], the 50% degradation concentration (DC50) is 50 to 500 nM.

For `Cc1ncsc1-c1ccc(CNC(=O)[C@@H]2C[C@@H](O)CN2C(=O)[C@@H](NC(=O)C2(F)CC2)C(C)(C)C)c(OCCOCCOCCOCCOCCNC(=O)O[C@H]2C[C@@H](C)C=C3C=C[C@H](C)[C@H](CC[C@@H]4C[C@@H](O[Si](C)(C)C(C)(C)C)CC(=O)O4)[C@H]32)c1` [Compound 30, (1S,3R,7S,8S,8aR)-8-(2-((2R,4R)-4-((tert-butyldimethylsilyl)oxy)-6-oxotetrahydro-2H-pyran-2-yl)ethyl)-3,7-dimethyl-1,2,3,7,8,8a-hexahydronaphthalen-1-yl (14-(2-(((2S,4R)-1-((S)-2-(1-fluorocyclopropane-1-carboxamido)-3,3-dimethylbutanoyl)-4-hydroxypyrrolidine-2-carboxamido)methyl)-5-(4-methylthiazol-5-yl)phenoxy)-3,6,9,12-tetraoxatetradecyl)carbamate], the DC50 fell in the range of 50 to 500 nM.

Staying with this assay, now noted: treated for 18 hours, ratio of HMG-CoA reductase to GAPDH, read-out: DC50.
Consider `Cc1ncsc1-c1ccc(CNC(=O)[C@@H]2C[C@@H](O)CN2C(=O)[C@@H](NC(=O)C2(F)CC2)C(C)(C)C)c(OCCOCCOCCNC(=O)O[C@H]2C[C@@H](C)C=C3C=C[C@H](C)[C@H](CC[C@@H]4C[C@@H](O)CC(=O)O4)[C@H]32)c1` [Compound 24, (1S,3R,7S,8S,8aR)-8-(2-((2R,4R)-4-hydroxy-6-oxotetrahydro-2H-pyran-2-yl)ethyl)-3,7-dimethyl-1,2,3,7,8,8a-hexahydronaphthalen-1-yl (2-(2-(2-(2-(((2S,4R)-1-((S)-2-(1-fluorocyclopropane-1-carboxamido)-3,3-dimethylbutanoyl)-4-hydroxypyrrolidine-2-carboxamido)methyl)-5-(4-methylthiazol-5-yl)phenoxy)ethoxy)ethoxy)ethyl)carbamate], for which the DC50 is < 50 nM.

With `Cc1ncsc1-c1ccc(CNC(=O)[C@@H]2C[C@@H](O)CN2C(=O)[C@@H](NC(=O)C2(F)CC2)C(C)(C)C)c(OCCOCCOCCOCCNC(=O)O[C@H]2C[C@@H](C)C=C3C=C[C@H](C)[C@H](CC[C@@H]4C[C@@H](O)CC(=O)O4)[C@H]32)c1` [Compound 25, (1S,3R,7S,8S,8aR)-8-(2-((2R,4R)-4-hydroxy-6-oxotetrahydro-2H-pyran-2-yl)ethyl)-3,7-dimethyl-1,2,3,7,8,8a-hexahydronaphthalen-1-yl (2-(2-(2-(2-(2-(((2S,4R)-1-((S)-2-(1-fluorocyclopropane-1-carboxamido)-3,3-dimethylbutanoyl)-4-hydroxypyrrolidine-2-carboxamido)methyl)-5-(4-methylthiazol-5-yl)phenoxy)ethoxy)ethoxy)ethoxy)ethyl)carbamate], the 50% degradation concentration (DC50) was < 50 nM.

Turning to `Cc1ncsc1-c1ccc(CNC(=O)[C@@H]2C[C@@H](O)CN2C(=O)[C@@H](NC(=O)C2(F)CC2)C(C)(C)C)c(OCCOCCOCCOCCOCCNC(=O)O[C@H]2C[C@@H](C)C=C3C=C[C@H](C)[C@H](CC[C@@H]4C[C@@H](O)CC(=O)O4)[C@H]32)c1` [Compound 26, (1S,3R,7S,8S,8aR)-8-(2-((2R,4R)-4-hydroxy-6-oxotetrahydro-2H-pyran-2-yl)ethyl)-3,7-dimethyl-1,2,3,7,8,8a-hexahydronaphthalen-1-yl (14-(2-(((2S,4R)-1-((S)-2-(1-fluorocyclopropane-1-carboxamido)-3,3-dimethylbutanoyl)-4-hydroxypyrrolidine-2-carboxamido)methyl)-5-(4-methylthiazol-5-yl)phenoxy)-3,6,9,12-tetraoxatetradecyl)carbamate], the DC50 was < 50 nM.

Take `Cc1ncsc1-c1ccc(CNC(=O)[C@@H]2C[C@@H](O)CN2C(=O)[C@@H](NC(=O)C2(F)CC2)C(C)(C)C)c(OCCOCCNC(=O)O[C@H]2C[C@@H](C)C=C3C=C[C@H](C)[C@H](CC[C@@H]4C[C@@H](O[Si](C)(C)C(C)(C)C)CC(=O)O4)[C@H]32)c1` [Compound 27, (1S,3R,7S,8S,8aR)-8-(2-((2R,4R)-4-((tert-butyldimethylsilyl)oxy)-6-oxotetrahydro-2H-pyran-2-yl)ethyl)-3,7-dimethyl-1,2,3,7,8,8a-hexahydronaphthalen-1-yl (2-(2-(2-(((2S,4R)-1-((S)-2-(1-fluorocyclopropane-1-carboxamido)-3,3-dimethylbutanoyl)-4-hydroxypyrrolidine-2-carboxamido)methyl)-5-(4-methylthiazol-5-yl)phenoxy)ethoxy)ethyl)carbamate]: the DC50 was < 50 nM.

Turning to `CN[C@@H](C)C(=O)N[C@H](C(=O)N1CCC[C@H]1c1nc(C(=O)c2cccc(OCCOCCOCCNC(=O)O[C@H]3C[C@@H](C)C=C4C=C[C@H](C)[C@H](CC[C@@H]5C[C@@H](O)CC(=O)O5)[C@H]43)c2)cs1)C1CCCCC1` [Compound 31, (1S,3R,7S,8S,8aR)-8-(2-((2R,4R)-4-hydroxy-6-oxotetrahydro-2H-pyran-2-yl)ethyl)-3,7-dimethyl-1,2,3,7,8,8a-hexahydronaphthalen-1-yl (2-(2-(2-(3-(2-((S)-1-((S)-2-cyclohexyl-2-((S)-2-(methylamino)propanamido)acetyl)pyrrolidin-2-yl)thiazole-4-carbonyl)phenoxy)ethoxy)ethoxy)ethyl)carbamate], the DC50 was < 50 nM.

For `CN[C@@H](C)C(=O)N[C@H](C(=O)N1CCC[C@H]1c1nc(C(=O)c2cccc(OCCOCCOCCOCCNC(=O)O[C@H]3C[C@@H](C)C=C4C=C[C@H](C)[C@H](CC[C@@H]5C[C@@H](O)CC(=O)O5)[C@H]43)c2)cs1)C1CCCCC1` [Compound 32, (1S,3R,7S,8S,8aR)-8-(2-((2R,4R)-4-hydroxy-6-oxotetrahydro-2H-pyran-2-yl)ethyl)-3,7-dimethyl-1,2,3,7,8,8a-hexahydronaphthalen-1-yl (2-(2-(2-(2-(3-(2-((S)-1-((S)-2-cyclohexyl-2-((S)-2-(methylamino)propanamido)acetyl)pyrrolidin-2-yl)thiazole-4-carbonyl)phenoxy)ethoxy)ethoxy)ethoxy)ethyl)carbamate], the DC50 was < 50 nM.

In the case of `CN[C@@H](C)C(=O)N[C@H](C(=O)N1CCC[C@H]1c1nc(C(=O)c2cccc(OCCOCCOCCOCCOCCNC(=O)O[C@H]3C[C@@H](C)C=C4C=C[C@H](C)[C@H](CC[C@@H]5C[C@@H](O)CC(=O)O5)[C@H]43)c2)cs1)C1CCCCC1` [Compound 33, (1S,3R,7S,8S,8aR)-8-(2-((2R,4R)-4-hydroxy-6-oxotetrahydro-2H-pyran-2-yl)ethyl)-3,7-dimethyl-1,2,3,7,8,8a-hexahydronaphthalen-1-yl (14-(3-(2-((S)-1-((S)-2-cyclohexyl-2-((S)-2-(methylamino)propanamido)acetyl)pyrrolidin-2-yl)thiazole-4-carbonyl)phenoxy)-3,6,9,12-tetraoxatetradecyl)carbamate], the DC50 is < 50 nM.

The term DC50 denotes the concentration at which degradation of the target reaches its halfway point.

The record behind these values is patent US12479840B2, “HMG-CoA reductase degradation inducing compound” (Uppthera, priority 2020, dated 2025).
